According to BindingDB's records for doi:10.1016/s0960-894x(99)00041-4 (1999):
Numbered stars: 1 amine (or outer) side, 2 acyl side, 3 side chain; on linkers, the order of the positions; unused ones are H or OH. Bridge positions count the residues as written; N and C are the ends. Square brackets hold non-standard residues; d marks the D form. Peptide text beside a SMILES is read from it. X1 = O=C([C@@]1(N[*:1])CCc2ccccc2C1)[*:2]; Atc(2S) = N[C@@]1(C(=O)O)CCc2ccccc2C1; Mpa = O=C(O)CCS; Sar = CNCC(=O)O

Target: Oxytocin receptor (Cavia porcellus)
Assay: Compound was evaluated for its dissociation constant (Kd) to guinea pig myometrial Oxytocin receptor

| Kd [nM] | Compound |
| --- | --- |
| 38 | CC[C@H](C)[C@@H]1NC(=O)[C@@H](Cc2c[nH]c3ccccc23)NC(=O)CCSSC[C@@H](C(=O)N(C)CC(=O)N[C@@H](CCCNC(=N)N)C(=O)NCC(N)=O)NC(=O)[C@H](CC(N)=O)NC(=O)[C@H](CCC(N)=O)NC1=O [Mpa-D-Trp-lle-Gln-Asn-Cys-Sar-Arg-Gly-NH2] |
| 370 | CC[C@H](C)[C@@H]1NC(=O)[C@@]2(CCc3ccccc3C2)NC(=O)CCSSC[C@@H](C(=O)N(C)CC(=O)N[C@@H](CCCN=C(N)N)C(=O)NCC(N)=O)NC(=O)[C@H](CC(N)=O)NC(=O)[C@H](CCC(N)=O)NC1=O ([Mpa][Atc(2S)]IQNC[Sar]RG-NH2; disulfide 1-6) |
| 1920 | CC[C@H](C)[C@@H]1NC(=O)[C@]2(CCc3ccccc3C2)NC(=O)CCSSC[C@@H](C(=O)N(C)CC(=O)N[C@@H](CCCN=C(N)N)C(=O)NCC(N)=O)NC(=O)[C@H](CC(N)=O)NC(=O)[C@H](CCC(N)=O)NC1=O ([Mpa][X1]IQNC[Sar]RG-NH2; disulfide 1-6) |
